Reference: ChEMBL document CHEMBL1772979, “SAR studies on a series of N-benzyl-4-heteroaryl-1-(phenylsulfonyl)piperazine-2-carboxamides: potent inhibitors of the polymerase enzyme (NS5B) of the hepatitis C virus” (Bioorg Med Chem Lett, 2011)

Experiments:
Hepatitis C virus [1] = experiment: Inhibition of Hepatitis C virus subtype 1b wild-type NS5B expressed in Escherichia coli BL21(DE3) assessed as decrease in [3H]-UTP incorporation using polyA template/biotin-labeled dT primer by SPA method
Hepatitis C virus [2] = experiment: Antiviral activity against Hepatitis C virus expressing NS5B Y452H mutant by cell based replicon assay; type: functional, organism-based, Hepacivirus hominis
Hepatitis C virus [3] = experiment: Antiviral activity against Hepatitis C virus subtype 1b by cell based replicon assay; type: functional, organism-based, Hepacivirus hominis, genotype 1b
Hepatitis C virus [4] = experiment: Antiviral activity against Hepatitis C virus subtype 1a by cell based replicon assay; type: functional, organism-based, Hepacivirus hominis
[5] = Inhibition of Hepatitis C virus subtype 1a wild-type NS5B expressed in Escherichia coli BL21(DE3) assessed as decrease in [3H]-UTP incorporation using polyA template/biotin-labeled dT primer by SPA method
[6] = Hepatitis C virus, genotype 1b, read-out: EC50
[7] = Hepatitis C virus, subtype 1a, read-out: EC50

Which results are given for CC[C@H](C)NC(=O)c1ccc(N2CCN(S(=O)(=O)c3ccc(OC(F)(F)F)cc3)[C@@H](C(=O)NCc3ccc(OC(F)(F)F)cc3)C2)nn1?
IC50 (Hepatitis C virus [1]): 13 nM; EC50 (Hepatitis C virus [2]): 400 nM

Which EC50 (Hepatitis C virus [3]; [6]) does the source give for CNC(=O)c1ccc(N2CCN(S(=O)(=O)c3ccc(OC(F)(F)F)cc3)[C@@H](C(=O)NCc3ccc(OC(F)(F)F)cc3)C2)nn1 here?
The EC50 was 7 nM.

What about the EC50 (Hepatitis C virus [4]; [7]) of the same molecule?
Its EC50 is 220 nM.

For CCc1ccc(S(=O)(=O)N2CCN(c3cc(OC)nc(OC)n3)C[C@@H]2C(=O)NCc2ccc(OC)cc2)cc1, which EC50 (Hepatitis C virus [3]; [6]) is on record?
Its EC50 is 900 nM.

And the EC50 (Hepatitis C virus [4]; [7])?
Its EC50 is 6200 nM.

Which EC50 (Hepatitis C virus [3]; [6]) does the source give for CCc1ccc(S(=O)(=O)N2CCN(c3cc(OC)nc(OC)n3)C[C@H]2C(=O)NCc2ccc(OC)cc2)cc1 here?
Its EC50 is 10100 nM.

And the EC50 (Hepatitis C virus [4]; [7])?
The EC50 was 14100 nM.

With CC(C)NC(=O)c1ccc(N2CCN(S(=O)(=O)c3ccc(OC(F)(F)F)cc3)[C@@H](C(=O)NCc3ccc(OC(F)(F)F)cc3)C2)nn1 as the molecule, how does the EC50 (Hepatitis C virus [3]; [6]) read?
Its EC50 is 8 nM.

What about the EC50 (Hepatitis C virus [4]; [7]) of the same molecule?
Its EC50 is 139 nM.

Which EC50 (Hepatitis C virus [3]) does the source give for COc1cc(N2CCN(S(=O)(=O)c3cccc(-c4ccc(F)cc4)c3)C(C(=O)NCc3ccc(OC(F)(F)F)cc3)C2)nc(OC)n1 (racemic) here?
The EC50 was “Not Active”.

And the EC50 (Hepatitis C virus [4])?
The EC50 was “Not Active”.

Which EC50 (Hepatitis C virus [3]; [6]) does the source give for CCc1ccc(S(=O)(=O)N2CCN(c3cc(OC)nc(OC)n3)CC2C(=O)NCc2ccccc2)cc1 (racemic) here?
The EC50 was 8800 nM.

What about the EC50 (Hepatitis C virus [4]) of the same molecule?
The EC50 was “Not Active”.

Which results are given for COC(=O)c1cnc(N2CCN(S(=O)(=O)c3ccc(OC(F)(F)F)cc3)C(C(=O)NCc3ccc(OC(F)(F)F)cc3)C2)cn1 (racemic)?
EC50 (Hepatitis C virus [3]; [6]): 140 nM; EC50 (Hepatitis C virus [4]; [7]): 1600 nM

Which EC50 (Hepatitis C virus [3]; [6]) does the source give for CNC(=O)c1ccc(N2CCN(S(=O)(=O)c3ccc(OC(F)(F)F)cc3)C(C(=O)NCc3ccc(OC(F)(F)F)cc3)C2)nn1 (racemic) here?
Its EC50 is 20 nM.

And the EC50 (Hepatitis C virus [4]; [7])?
Its EC50 is 330 nM.

For CNC(=O)c1cnc(N2CCN(S(=O)(=O)c3ccc(OC(F)(F)F)cc3)C(C(=O)NCc3ccc(OC(F)(F)F)cc3)C2)cn1 (racemic), which EC50 (Hepatitis C virus [3]; [6]) is on record?
The EC50 was 220 nM.

What about the EC50 (Hepatitis C virus [4]; [7]) of the same molecule?
Its EC50 is 2230 nM.

With CCc1ccc(S(=O)(=O)N2CCN(c3cc(OC)nc(OC)n3)CC2C(=O)N(C)Cc2ccccc2)cc1 (racemic) as the molecule, how does the EC50 (Hepatitis C virus [3]; [6]) read?
Its EC50 is > 50000 nM.

And the EC50 (Hepatitis C virus [4]; [7])?
Its EC50 is > 50000 nM.

With CCc1ccc(S(=O)(=O)N2CCN(c3cc(OC)nc(OC)n3)CC2C(=O)NCc2ccc(C)cc2)cc1 (racemic) as the molecule, how does the EC50 (Hepatitis C virus [3]; [6]) read?
The EC50 was 1700 nM.

And the EC50 (Hepatitis C virus [4]; [7])?
Its EC50 is 20500 nM.

What does the source list for CCc1ccc(S(=O)(=O)N2CCN(c3cc(OC)nc(OC)n3)CC2C(=O)NCc2ccc(OC)cc2)cc1 (racemic)?
IC50 [5]: 12500 nM; EC50 (Hepatitis C virus [3]; [6]): 2200 nM; EC50 (Hepatitis C virus [4]; [7]): 23000 nM; IC50 (Hepatitis C virus [1]): 300 nM

For CCc1ccc(S(=O)(=O)N2CCN(c3cc(OC)nc(OC)n3)CC2C(=O)NCc2ccc(OC(F)(F)F)cc2)cc1 (racemic), which EC50 (Hepatitis C virus [3]; [6]) is on record?
Its EC50 is 500 nM.

What about the EC50 (Hepatitis C virus [4]; [7]) of the same molecule?
The EC50 was 9200 nM.

What does the source list for CCc1ccc(S(=O)(=O)N2CCN(c3cc(OC)nc(OC)n3)CC2C(=O)NCc2ccc(Cl)cc2)cc1 (racemic)?
EC50 (Hepatitis C virus [3]; [6]): 2100 nM; EC50 (Hepatitis C virus [4]; [7]): 30800 nM

For CCc1ccc(S(=O)(=O)N2CCN(c3cc(OC)nc(OC)n3)CC2C(=O)NCc2ccccc2Cl)cc1 (racemic), which EC50 (Hepatitis C virus [3]; [6]) is on record?
Its EC50 is 3700 nM.

And the EC50 (Hepatitis C virus [4]; [7])?
The EC50 was > 50000 nM.

What does the source list for CCc1ccc(S(=O)(=O)N2CCN(c3cc(OC)nc(OC)n3)CC2C(=O)NCc2ccc(Cl)cc2Cl)cc1 (racemic)?
EC50 (Hepatitis C virus [3]; [6]): 2400 nM; EC50 (Hepatitis C virus [4]; [7]): > 50000 nM

With CCc1ccc(S(=O)(=O)N2CCN(c3cc(OC)nc(OC)n3)CC2C(=O)NCc2ccc(OC)cc2OC)cc1 (racemic) as the molecule, how does the EC50 (Hepatitis C virus [3]; [6]) read?
The EC50 was 1200 nM.

What about the EC50 (Hepatitis C virus [4]; [7]) of the same molecule?
The EC50 was 12400 nM.

With CCc1ccc(S(=O)(=O)N2CCN(c3cc(OC)nc(OC)n3)CC2C(=O)NCc2ccc(OC)c(OC)c2)cc1 (racemic) as the molecule, how does the EC50 (Hepatitis C virus [3]; [6]) read?
Its EC50 is 900 nM.

What about the EC50 (Hepatitis C virus [4]; [7]) of the same molecule?
The EC50 was 14600 nM.

Which EC50 (Hepatitis C virus [3]; [6]) does the source give for CCc1ccc(S(=O)(=O)N2CCN(c3cc(OC)nc(OC)n3)CC2C(=O)NCc2ccc(-c3cccs3)cc2)cc1 (racemic) here?
The EC50 was 1200 nM.

And the EC50 (Hepatitis C virus [4]; [7])?
Its EC50 is 47000 nM.

Which results are given for CCc1ccc(S(=O)(=O)N2CCN(c3cc(OC)nc(OC)n3)CC2C(=O)NCC2CC2)cc1 (racemic)?
EC50 (Hepatitis C virus [3]): Not Active; EC50 (Hepatitis C virus [4]): Not Active

With CCc1ccc(S(=O)(=O)N2CCN(c3cc(OC)nc(OC)n3)CC2C(=O)NCc2c(C)nn(-c3ccccc3)c2C)cc1 (racemic) as the molecule, how does the EC50 (Hepatitis C virus [3]; [6]) read?
Its EC50 is 2100 nM.

And the EC50 (Hepatitis C virus [4]; [7])?
The EC50 was 20800 nM.

For COc1cc(N2CCN(S(=O)(=O)c3ccccc3)C(C(=O)NCc3ccc(OC(F)(F)F)cc3)C2)nc(OC)n1 (racemic), which EC50 (Hepatitis C virus [3]; [6]) is on record?
Its EC50 is 20300 nM.

And the EC50 (Hepatitis C virus [4])?
Its EC50 is “Not Active”.

What does the source list for COc1cc(N2CCN(S(=O)(=O)C3CCCCC3)C(C(=O)NCc3ccc(OC(F)(F)F)cc3)C2)nc(OC)n1 (racemic)?
EC50 (Hepatitis C virus [3]): Not Active; EC50 (Hepatitis C virus [4]): Not Active

With COc1cc(N2CCN(S(=O)(=O)c3ccccc3F)C(C(=O)NCc3ccc(OC(F)(F)F)cc3)C2)nc(OC)n1 (racemic) as the molecule, how does the EC50 (Hepatitis C virus [3]) read?
Its EC50 is “Not Active”.

And the EC50 (Hepatitis C virus [4])?
The EC50 was “Not Active”.

Which results are given for COc1cc(N2CCN(S(=O)(=O)c3cccc(C)c3)C(C(=O)NCc3ccc(OC(F)(F)F)cc3)C2)nc(OC)n1 (racemic)?
EC50 (Hepatitis C virus [3]; [6]): 1400 nM; EC50 (Hepatitis C virus [4]; [7]): 41000 nM

Which EC50 (Hepatitis C virus [3]; [6]) does the source give for COc1cc(N2CCN(S(=O)(=O)c3cccc(OC(F)(F)F)c3)C(C(=O)NCc3ccc(OC(F)(F)F)cc3)C2)nc(OC)n1 (racemic) here?
The EC50 was 5300 nM.

What about the EC50 (Hepatitis C virus [4]; [7]) of the same molecule?
Its EC50 is 58000 nM.

With COc1cc(N2CCN(S(=O)(=O)c3cccc(C(F)(F)F)c3)C(C(=O)NCc3ccc(OC(F)(F)F)cc3)C2)nc(OC)n1 (racemic) as the molecule, how does the EC50 (Hepatitis C virus [3]; [6]) read?
The EC50 was 6200 nM.

And the EC50 (Hepatitis C virus [4]; [7])?
Its EC50 is 53000 nM.

For COc1cc(N2CCN(S(=O)(=O)c3ccc(OC(F)(F)F)cc3)C(C(=O)NCc3ccc(OC(F)(F)F)cc3)C2)nc(OC)n1 (racemic), which EC50 (Hepatitis C virus [3]; [6]) is on record?
The EC50 was 700 nM.

What about the EC50 (Hepatitis C virus [4]; [7]) of the same molecule?
The EC50 was 8100 nM.

Which EC50 (Hepatitis C virus [3]; [6]) does the source give for COc1cc(N2CCN(S(=O)(=O)c3ccc(C(F)(F)F)cc3)C(C(=O)NCc3ccc(OC(F)(F)F)cc3)C2)nc(OC)n1 (racemic) here?
Its EC50 is 1200 nM.

What about the EC50 (Hepatitis C virus [4]; [7]) of the same molecule?
Its EC50 is 13000 nM.

What does the source list for COc1cc(N2CCN(S(=O)(=O)c3ccc(-c4ccccc4)cc3)C(C(=O)NCc3ccc(OC(F)(F)F)cc3)C2)nc(OC)n1 (racemic)?
EC50 (Hepatitis C virus [3]; [6]): 2400 nM; EC50 (Hepatitis C virus [4]; [7]): 56000 nM

Which EC50 (Hepatitis C virus [3]; [6]) does the source give for COc1ccc(S(=O)(=O)N2CCN(c3cc(OC)nc(OC)n3)CC2C(=O)NCc2ccc(OC(F)(F)F)cc2)cc1 (racemic) here?
The EC50 was 5900 nM.

And the EC50 (Hepatitis C virus [4]; [7])?
The EC50 was 64000 nM.

What does the source list for COc1cc(N2CCN(S(=O)(=O)c3ccc(F)cc3)C(C(=O)NCc3ccc(OC(F)(F)F)cc3)C2)nc(OC)n1 (racemic)?
EC50 (Hepatitis C virus [3]; [6]): 8100 nM; EC50 (Hepatitis C virus [4]): Not Active

For COc1cc(N2CCN(S(=O)(=O)c3ccc(OC)c(OC)c3)C(C(=O)NCc3ccc(OC(F)(F)F)cc3)C2)nc(OC)n1 (racemic), which EC50 (Hepatitis C virus [3]; [6]) is on record?
Its EC50 is 1100 nM.

And the EC50 (Hepatitis C virus [4]; [7])?
Its EC50 is 13000 nM.

With O=C(O)c1ccc(N2CCN(S(=O)(=O)c3ccc(OC(F)(F)F)cc3)C(C(=O)NCc3ccc(OC(F)(F)F)cc3)C2)nn1 (racemic) as the molecule, how does the EC50 (Hepatitis C virus [3]) read?
Its EC50 is “Not Active”.

And the EC50 (Hepatitis C virus [4])?
The EC50 was “Not Active”.

For O=C(O)c1cnc(N2CCN(S(=O)(=O)c3ccc(OC(F)(F)F)cc3)C(C(=O)NCc3ccc(OC(F)(F)F)cc3)C2)cn1 (racemic), which EC50 (Hepatitis C virus [3]) is on record?
The EC50 was “Not Active”.

And the EC50 (Hepatitis C virus [4])?
Its EC50 is “Not Active”.

With COC(=O)c1ccc(N2CCN(S(=O)(=O)c3ccc(OC(F)(F)F)cc3)C(C(=O)NCc3ccc(OC(F)(F)F)cc3)C2)nn1 (racemic) as the molecule, how does the EC50 (Hepatitis C virus [3]; [6]) read?
Its EC50 is 380 nM.

What about the EC50 (Hepatitis C virus [4]; [7]) of the same molecule?
Its EC50 is 3900 nM.

Which EC50 (Hepatitis C virus [3]; [6]) does the source give for CCC(C)(C)NC(=O)c1ccc(N2CCN(S(=O)(=O)c3ccc(OC(F)(F)F)cc3)C(C(=O)NCc3ccc(OC(F)(F)F)cc3)C2)nn1 (racemic) here?
Its EC50 is 43 nM.

What about the EC50 (Hepatitis C virus [4]; [7]) of the same molecule?
Its EC50 is 460 nM.
